Results published in ChEMBL document CHEMBL5620412, “Discovery of benzofuran-2-carboxylic acid derivatives as lymphoid tyrosine phosphatase (LYP) inhibitors for cancer immunotherapy” (Eur J Med Chem, 2023).

What was measured:
[1] = (§1) Selectivity ratio of IC50 for inhibition of N-terminal His-tagged PTPN12 catalytic domain (1 to 294 residues) (unknown origin) expressed in Escherichia coli BL21 (DE3) cells to IC50 for inhibition of N-terminal His-tagged LYP catalytic domain (1 to 294 residues) (unknown origin) expressed in Escherichia coli BL21 (DE3) cells using pNPP as substrate
[2] = molecular target: T1, Tyrosine-protein phosphatase non-receptor type 22 (Homo sapiens, UniProt Q9Y2R2); experiment: Competitive inhibition of N-terminal His-tagged LYP catalytic domain (1 to 294 residues) (unknown origin) expressed in Escherichia coli BL21 (DE3) cells using pNPP as substrate assessed as inhibition constant by Lineweaver-Burk plot analysis
T1 sequence (Q9Y2R2 whole entry): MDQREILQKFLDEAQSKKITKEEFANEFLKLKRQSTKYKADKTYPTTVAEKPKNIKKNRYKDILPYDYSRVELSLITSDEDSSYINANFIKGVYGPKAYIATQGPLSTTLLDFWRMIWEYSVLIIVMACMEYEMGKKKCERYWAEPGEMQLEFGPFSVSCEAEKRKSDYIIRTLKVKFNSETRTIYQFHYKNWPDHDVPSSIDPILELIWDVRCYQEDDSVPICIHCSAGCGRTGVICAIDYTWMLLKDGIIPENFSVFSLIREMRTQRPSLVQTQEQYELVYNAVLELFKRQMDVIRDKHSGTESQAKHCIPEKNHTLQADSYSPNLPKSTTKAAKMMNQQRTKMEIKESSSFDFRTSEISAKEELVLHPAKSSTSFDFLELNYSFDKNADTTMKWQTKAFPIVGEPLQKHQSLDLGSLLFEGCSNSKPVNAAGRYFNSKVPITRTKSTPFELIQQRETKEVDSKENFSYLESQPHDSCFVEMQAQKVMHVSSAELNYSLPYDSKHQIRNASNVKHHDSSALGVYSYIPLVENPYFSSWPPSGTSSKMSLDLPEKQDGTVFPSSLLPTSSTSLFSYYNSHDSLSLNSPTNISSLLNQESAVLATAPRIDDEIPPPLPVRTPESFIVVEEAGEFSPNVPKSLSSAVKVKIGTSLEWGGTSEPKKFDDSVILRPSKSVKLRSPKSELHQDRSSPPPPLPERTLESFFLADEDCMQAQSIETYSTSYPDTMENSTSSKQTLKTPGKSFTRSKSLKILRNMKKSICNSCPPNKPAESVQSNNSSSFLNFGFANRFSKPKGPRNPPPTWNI

[3] = molecular target: T2, Protein phosphatase Slingshot homolog 2 (Homo sapiens, UniProt Q76I76); experiment: Inhibition of N-terminal His-tagged SSH2 catalytic domain (1 to 294 residues) (unknown origin) expressed in Escherichia coli BL21 (DE3) cells
T2 sequence (Q76I76 whole entry): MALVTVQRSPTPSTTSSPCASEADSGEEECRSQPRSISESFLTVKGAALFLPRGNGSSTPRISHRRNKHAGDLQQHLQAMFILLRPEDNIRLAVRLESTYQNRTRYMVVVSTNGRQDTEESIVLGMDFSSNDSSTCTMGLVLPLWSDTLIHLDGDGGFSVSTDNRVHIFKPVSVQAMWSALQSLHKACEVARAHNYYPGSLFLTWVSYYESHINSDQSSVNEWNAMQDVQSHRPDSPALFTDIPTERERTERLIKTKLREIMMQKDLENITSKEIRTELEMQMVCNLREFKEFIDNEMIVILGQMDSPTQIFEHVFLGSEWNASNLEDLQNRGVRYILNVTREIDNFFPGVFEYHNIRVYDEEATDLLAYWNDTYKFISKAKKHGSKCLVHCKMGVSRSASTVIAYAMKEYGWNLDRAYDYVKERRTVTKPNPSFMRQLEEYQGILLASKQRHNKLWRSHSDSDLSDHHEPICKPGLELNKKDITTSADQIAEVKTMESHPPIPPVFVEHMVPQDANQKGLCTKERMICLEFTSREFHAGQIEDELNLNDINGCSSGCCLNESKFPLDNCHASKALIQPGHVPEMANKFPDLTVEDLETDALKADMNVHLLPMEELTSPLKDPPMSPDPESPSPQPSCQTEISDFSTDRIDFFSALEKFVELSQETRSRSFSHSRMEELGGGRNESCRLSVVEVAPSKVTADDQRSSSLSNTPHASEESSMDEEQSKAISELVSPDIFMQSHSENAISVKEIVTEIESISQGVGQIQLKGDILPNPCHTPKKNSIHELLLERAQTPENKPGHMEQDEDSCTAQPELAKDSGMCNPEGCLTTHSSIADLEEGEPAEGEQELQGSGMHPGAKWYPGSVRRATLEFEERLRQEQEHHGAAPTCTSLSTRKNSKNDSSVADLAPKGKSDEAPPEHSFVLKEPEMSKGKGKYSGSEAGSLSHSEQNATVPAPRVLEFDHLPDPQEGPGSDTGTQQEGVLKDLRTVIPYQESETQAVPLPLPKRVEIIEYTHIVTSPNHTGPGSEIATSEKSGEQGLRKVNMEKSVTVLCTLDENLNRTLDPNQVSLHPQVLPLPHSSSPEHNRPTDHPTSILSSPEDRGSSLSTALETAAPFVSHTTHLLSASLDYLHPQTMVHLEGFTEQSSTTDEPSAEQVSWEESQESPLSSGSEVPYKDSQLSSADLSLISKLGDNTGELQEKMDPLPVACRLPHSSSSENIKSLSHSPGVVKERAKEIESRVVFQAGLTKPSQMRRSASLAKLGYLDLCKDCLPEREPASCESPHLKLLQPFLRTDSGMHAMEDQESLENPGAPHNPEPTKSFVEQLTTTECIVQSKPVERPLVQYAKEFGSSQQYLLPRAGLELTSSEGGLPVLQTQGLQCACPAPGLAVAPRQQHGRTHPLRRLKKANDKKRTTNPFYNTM

[4] = molecular target: T3, Tyrosine-protein phosphatase non-receptor type 1 (Homo sapiens, UniProt P18031); experiment: Inhibition of N-terminal His-tagged PTP1B catalytic domain (1 to 294 residues) (unknown origin) expressed in Escherichia coli BL21 (DE3) cells
T3 sequence (P18031 whole entry): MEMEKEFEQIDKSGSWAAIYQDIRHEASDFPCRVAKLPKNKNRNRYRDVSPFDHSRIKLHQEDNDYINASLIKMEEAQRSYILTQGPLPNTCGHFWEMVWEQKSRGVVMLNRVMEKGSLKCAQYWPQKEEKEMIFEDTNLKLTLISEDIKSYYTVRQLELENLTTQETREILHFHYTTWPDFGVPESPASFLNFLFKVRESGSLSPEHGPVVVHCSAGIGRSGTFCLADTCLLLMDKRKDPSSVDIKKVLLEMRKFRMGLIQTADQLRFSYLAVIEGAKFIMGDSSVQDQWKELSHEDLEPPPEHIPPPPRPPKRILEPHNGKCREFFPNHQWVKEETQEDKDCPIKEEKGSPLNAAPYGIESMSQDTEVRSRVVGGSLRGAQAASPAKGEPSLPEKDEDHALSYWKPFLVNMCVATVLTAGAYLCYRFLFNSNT

[5] = as §1, with “PTPN5” for “PTPN12”

Structure (SMILES)	Ki [2]	IC50 [3]	IC50 [4]	Ratio IC50 [1]	Ratio IC50 [5]
O=C(O)c1cc2cc(N(Cc3ccc(-c4ccccc4)cc3)S(=O)(=O)c3ccc(-c4cccc(O)c4)cc3)ccc2o1		> 20 µM	6.4 µM	1.8	> 5.5
COc1ccc(-c2ccc(CN(c3ccc4oc(C(=O)O)cc4c3)S(=O)(=O)c3ccc(Cl)c([N+](=O)[O-])c3)cc2)cc1	1340 nM	> 20 µM	13.7 µM		
O=C(O)c1cc2cc(N(Cc3cccc(-c4ccccc4)c3)S(=O)(=O)c3ccc(-c4ccccc4)cc3)ccc2o1		> 20 µM	5.9 µM	1.8	> 5.5

Second part, led by results:

Ki [2]	IC50 [3]	IC50 [4]	Structure (SMILES)	Ratio IC50 [1]	Ratio IC50 [5]
4380 nM	> 20 µM	7.1 µM	CC(=O)C1=C(C)N=c2s/c(=C/c3ccc(OCc4ccc(C(=O)O)cc4)cc3)c(=O)n2C1c1ccc(N(C)C)cc1 (stereo not given)	1.2	
930 nM	> 20 µM	10.7 µM	O=C(O)c1cc2cc(N(Cc3ccc(OCc4ccccc4)cc3)S(=O)(=O)c3ccc(-c4ccccc4)cc3)ccc2o1	> 3.5	> 3.5
